Assay results taken from patent publication US20080227870A1, “Carcinogen Solvents in Reducing the Carcinogen Concentration of Cells” (priority 2004, published 2008).

System: human fibroplasts
Experiment: Membrane integrity test with a vital dye after exposure to perfluorocarbon liquid
Type: cell-based
Conditions: biological compatibility statement for the used examples

## FC1(F)C(F)(F)C(F)(F)C2(F)C(F)(F)C(F)(F)C(F)(F)C(F)(F)C2(F)C1(F)F (centres unmarked) [perfluorodecalin]
  toxicity to the cell: non-toxic

## FC(F)(F)C(F)(F)C(F)(F)C(F)(F)C(F)(F)C(F)(F)C(F)(F)C(F)(F)Br [perfluorooctylbromide]
  toxicity to the cell: non-toxic
